Blank lines part the entries; values can stand above or below the molecule they belong to.
Experiments:
[1] = system: human rhabdomyosarcoma Rh30 cells; experiment: Proliferation of Rh30 cells (sulforhodamine B); type: cell-based; settings: for IC50: Homo sapiens, Rh30, 72 h, read-out: IC50 against proliferation of Rh30 cells
Experimental: Rh30 cells were seeded in a 96-well plate at 3000 cells/well. After the cells adhered, tested compounds at concentration of 10, 3, 1, 0.3, or 0.1 μM were added, and incubated for 72 h. The culture media were discarded and cells were fixed with trichloroacetic acid. After washed with distilled water for five times and dried, sulfonylrhodamine B was added. After washed with 1% glacial acetic acid for five times and dried, trihydroxymethylaminomethane buffer was added. OD value was measured by using a microplate reader at a wavelength of 560 nm.

PI3Kα = PI3Kα (Homo sapiens (Human), UniProt P42336); experiment: Inhibition on PI3K kinase activity (Kinase-Glo Plus luminescent assay); type: biochemical; settings: 2 μM ATP, 1 hour at room temperature
PI3Kα, sequence (P42336 whole entry): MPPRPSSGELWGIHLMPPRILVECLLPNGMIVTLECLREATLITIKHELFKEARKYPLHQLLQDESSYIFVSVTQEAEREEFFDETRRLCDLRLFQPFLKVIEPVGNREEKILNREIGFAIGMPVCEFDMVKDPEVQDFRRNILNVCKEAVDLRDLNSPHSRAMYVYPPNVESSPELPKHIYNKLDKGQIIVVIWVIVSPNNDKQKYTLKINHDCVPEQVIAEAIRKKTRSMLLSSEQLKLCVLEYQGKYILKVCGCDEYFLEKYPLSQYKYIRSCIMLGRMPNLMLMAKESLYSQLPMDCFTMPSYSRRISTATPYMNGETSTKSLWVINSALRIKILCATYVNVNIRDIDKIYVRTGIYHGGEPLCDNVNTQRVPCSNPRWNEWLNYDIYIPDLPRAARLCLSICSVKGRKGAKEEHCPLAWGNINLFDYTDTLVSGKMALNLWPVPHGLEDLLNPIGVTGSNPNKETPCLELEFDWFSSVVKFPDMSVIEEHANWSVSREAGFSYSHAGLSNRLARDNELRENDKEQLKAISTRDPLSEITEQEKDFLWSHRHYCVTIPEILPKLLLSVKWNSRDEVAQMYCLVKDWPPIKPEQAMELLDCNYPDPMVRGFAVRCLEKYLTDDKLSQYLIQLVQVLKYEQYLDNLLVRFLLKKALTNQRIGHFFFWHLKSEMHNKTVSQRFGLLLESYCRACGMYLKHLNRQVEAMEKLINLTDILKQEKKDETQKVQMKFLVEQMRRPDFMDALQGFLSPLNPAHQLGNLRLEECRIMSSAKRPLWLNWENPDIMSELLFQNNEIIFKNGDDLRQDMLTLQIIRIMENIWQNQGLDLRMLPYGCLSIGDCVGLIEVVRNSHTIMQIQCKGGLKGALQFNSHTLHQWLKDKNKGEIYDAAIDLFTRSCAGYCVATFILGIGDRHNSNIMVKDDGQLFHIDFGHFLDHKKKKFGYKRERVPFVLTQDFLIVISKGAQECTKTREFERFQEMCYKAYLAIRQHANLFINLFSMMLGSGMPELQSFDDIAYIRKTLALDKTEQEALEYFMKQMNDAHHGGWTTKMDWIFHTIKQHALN
PI3Kα, sequence (P27986 whole entry partner): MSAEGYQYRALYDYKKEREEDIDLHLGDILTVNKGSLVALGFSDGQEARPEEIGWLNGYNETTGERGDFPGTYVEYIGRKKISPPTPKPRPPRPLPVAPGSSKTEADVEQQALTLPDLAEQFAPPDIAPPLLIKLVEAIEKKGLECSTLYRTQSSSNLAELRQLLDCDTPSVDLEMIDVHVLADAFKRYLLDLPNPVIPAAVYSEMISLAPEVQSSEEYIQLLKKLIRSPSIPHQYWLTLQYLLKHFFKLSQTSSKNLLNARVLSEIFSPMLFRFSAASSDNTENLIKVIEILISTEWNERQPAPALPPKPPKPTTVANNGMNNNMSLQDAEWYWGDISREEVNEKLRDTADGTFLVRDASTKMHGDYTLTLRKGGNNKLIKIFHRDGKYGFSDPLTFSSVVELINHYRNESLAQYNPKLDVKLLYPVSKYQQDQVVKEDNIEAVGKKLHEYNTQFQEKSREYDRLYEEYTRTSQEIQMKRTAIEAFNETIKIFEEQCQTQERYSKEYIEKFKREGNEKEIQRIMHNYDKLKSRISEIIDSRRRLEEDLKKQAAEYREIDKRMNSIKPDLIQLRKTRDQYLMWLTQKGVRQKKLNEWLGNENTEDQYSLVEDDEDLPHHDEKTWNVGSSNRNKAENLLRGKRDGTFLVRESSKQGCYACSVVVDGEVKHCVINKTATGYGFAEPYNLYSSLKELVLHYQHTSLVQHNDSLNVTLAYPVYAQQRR
Experimental: The activity of purified kinase was detected with Kinase-Glo® Plus kinase luminescent assay by measuring the amount of the remaining […] in the solution after the kinase reaction was completed. […] After reaction was performed for 1 hour at room temperature, 10 μL of Kinase Glo-Plus mixture was added and incubated for 1 hour to quench the reaction.

KYSE30 = experiment: Proliferation of human esophagus cancer cells; type: cell-based
Source text: (§1) Compounds BYL719 (shown below), CYH33 (compound I-33) and I-27 were selected to test their activity on the proliferation of 11 species of human esophagus cancer cells.
(§2) The results reported in FIG. 3 were the average GI50 value and SD value of three experiments. The results were arranged according to the GI50 value of CYH33.

KYSE410 = experiment: Proliferation of human esophagus cancer cells; type: cell-based
Source text: as §1, §2

KYSE140 = experiment: Proliferation of human esophagus cancer cells; type: cell-based
Source text: as §1, §2

COLO680N = experiment: Proliferation of human esophagus cancer cells; type: cell-based; settings: COLO-680N
Source text: as §1, §2

KYSE510 = experiment: Proliferation of human esophagus cancer cells; type: cell-based
Source text: as §1, §2

KYSE70 = experiment: Proliferation of human esophagus cancer cells; type: cell-based
Source text: as §1, §2

KYSE2 = experiment: Proliferation of human esophagus cancer cells; type: cell-based
Source text: as §1, §2

KYSE180 = experiment: Proliferation of human esophagus cancer cells; type: cell-based
Source text: as §1, §2

KYSE150 = experiment: Proliferation of human esophagus cancer cells; type: cell-based
Source text: as §1, §2

Detroit 562 = experiment: Proliferation of human esophagus cancer cells; type: cell-based
Source text: as §1, §2

KYSE450 = experiment: Proliferation of human esophagus cancer cells; type: cell-based
Source text: as §1, §2

[2] = system: human esophagus cancer KYSE 410 xenograft; experiment: Growth of KYSE 410 xenograft subcutaneously transplanted in nude mouse; type: in vivo; settings: for Relative tumor proliferation rate T/C: 50 mg/kg p.o. once every day
Experimental: Well-developed tumors in nude mice were cut into 1.5 mm3 fragments and transplanted s.c. into the right flank of nude mice under sterile conditions. The diameters of subcutaneously transplanted tumours in nude mice were measured with a vernier calipe. When the tumour reached a volume 170 mm3, the mice were randomly assigned into two treatment groups: CYH33 50 mg/kg group or BYL-719 50 mg/kg group. Control groups were given the same amount of normal saline, and treatment groups received tested compounds (p.o). Compounds were administered orally once every day for 3 weeks. Evaluation index of antitumor activity was relative tumor proliferation rate T/C (%), the calculation formula of which was as follows: T/C (%)=(TRTV/CRTV)×100%, TRTV:RTV of treatment group; CRTV:RTV of negative control group.

[3] = KYSE-30, KYSE30, 1st experiment
[4] = KYSE-30, KYSE30, 2nd experiment
[5] = KYSE-30, KYSE30, 3rd experiment
[6] = KYSE-30, KYSE30, mean of three experiments
[7] = KYSE-410, KYSE410, 1st experiment
[8] = KYSE-410, KYSE410, 2nd experiment
[9] = KYSE-410, KYSE410, 3rd experiment
[10] = KYSE-410, KYSE410, mean of three experiments
[11] = KYSE-140, KYSE140, 1st experiment
[12] = KYSE-140, KYSE140, 2nd experiment
[13] = KYSE-140, KYSE140, 3rd experiment
[14] = KYSE-140, KYSE140, mean of three experiments
[15] = KYSE-510, KYSE510, 1st experiment
[16] = KYSE-510, KYSE510, 2nd experiment
[17] = KYSE-510, KYSE510, 3rd experiment
[18] = KYSE-510, KYSE510, mean of three experiments
[19] = KYSE-70, KYSE70, 1st experiment
[20] = KYSE-70, KYSE70, 2nd experiment
[21] = KYSE-70, KYSE70, 3rd experiment
[22] = KYSE-70, KYSE70, mean of three experiments
[23] = KYSE2, mean of three experiments
[24] = KYSE-180, KYSE180, 1st experiment
[25] = KYSE-180, KYSE180, 2nd experiment
[26] = KYSE-180, KYSE180, 3rd experiment
[27] = KYSE-180, KYSE180, mean of three experiments
[28] = KYSE-150, KYSE150, 1st experiment
[29] = KYSE-150, KYSE150, 2nd experiment
[30] = KYSE-150, KYSE150, 3rd experiment
[31] = KYSE-150, KYSE150, mean of three experiments
[32] = Detroit 562, Detroit 562, 1st experiment
[33] = Detroit 562, Detroit 562, 2nd experiment
[34] = Detroit 562, Detroit 562, 3rd experiment
[35] = Detroit 562, Detroit 562, mean of three experiments
[36] = KYSE-450, KYSE450, 1st experiment
[37] = KYSE-450, KYSE450, 2nd experiment
[38] = KYSE-450, KYSE450, 3rd experiment
[39] = KYSE-450, KYSE450, mean of three experiments

IC50 [1]: 74 nM | IC50 (PI3Kα): 9.3 nM
Structure (SMILES): CS(=O)(=O)N1CCN(Cc2cc3c(N4CCOCC4)nc(-c4cnc(NC(=O)Nc5ccc(F)cc5)cc4C(F)(F)F)nn3c2)CC1 [Compound I-28, 1-(4-fluorophenyl)-3-(5-(6-((4-(methylsulfonyl)piperazin-1-yl)methyl)-4-morpholinopyrrolo[2,1-f][1,2,4]triazin-2-yl)-4-(trifluoromethyl)pyridin-2-yl)urea]
inhibitory activity on Rh30 cell proliferation (in words) ([1]; 72 h): tens of nanomolar

IC50 [1]: 540 nM | IC50 (PI3Kα): 9.59 nM
Structure (SMILES): CN1CCN(C(=O)c2ccc(NC(=O)Nc3ccc(-c4nc(N5CCOCC5)c5cc(CN6CCN(S(C)(=O)=O)CC6)cn5n4)cc3)cc2)CC1 [Compound I-22, 1-(4-(4-methylpiperazine-carbonyl)phenyl)-3-(4-(6-((4-(methylsulfonyl)piperazin-1-yl)methy 1)-4-morpholinopyrrolo[2,1-f][1,2,4]triazin-2-yl)phenyl)urea]

IC50 (PI3Kα): 7.15 nM
Structure (SMILES): CCOC(=O)Nc1cc(C(F)(F)F)c(-c2nc(N3CCOCC3)c3cc(CN4CCN(S(C)(=O)=O)CC4)cn3n2)cn1 [Compound I-32, Ethyl (5-(6-((4-(methylsulfonyl)piperazin-1-yl)methyl)-4-morpholinopyrrolo[2,1-f-][1,2,4]triazin-2-yl)-4-(trifluoromethyl)pyridin-2-yl)carbamate]

IC50 [1]: 730 nM | IC50 (PI3Kα): 8.37 nM | GI50 (KYSE30; [3]): 2350 nM | GI50 (KYSE30; [4]): 1100 nM | GI50 (KYSE30; [5]): 1070 nM | GI50 (KYSE30; [6]): 1510 nM | GI50 (KYSE410; [7]): 468 nM | GI50 (KYSE410; [8]): 959 nM | GI50 (KYSE410; [9]): 229 nM | GI50 (KYSE410; [10]): 552 nM | GI50 (KYSE140; [11]): 898 nM | GI50 (KYSE140; [12]): 638 nM | GI50 (KYSE140; [13]): 792 nM | GI50 (KYSE140; [14]): 776 nM | GI50 (COLO680N; 1st experiment): 959 nM | GI50 (COLO680N; 2nd experiment): 915 nM | GI50 (COLO680N; 3rd experiment): 917 nM | GI50 (COLO680N; mean of three experiments): 930 nM | GI50 (KYSE510; [15]): 247 nM | GI50 (KYSE510; [16]): 390 nM | GI50 (KYSE510; [17]): 204 nM | GI50 (KYSE510; [18]): 280 nM | GI50 (KYSE70; [19]): 109 nM | GI50 (KYSE70; [20]): 59 nM | GI50 (KYSE70; [21]): 112 nM | GI50 (KYSE70; [22]): 93 nM | GI50 (KYSE2; KYSE2, 1st experiment): 255 nM | GI50 (KYSE2; KYSE2, 2nd experiment): 165 nM | GI50 (KYSE2; KYSE2, 3rd experiment): 310 nM | GI50 (KYSE2; [23]): 243 nM | GI50 (KYSE180; [24]): 100 nM | GI50 (KYSE180; [25]): 169 nM | GI50 (KYSE180; [26]): 77 nM | GI50 (KYSE180; [27]): 115 nM | GI50 (KYSE150; [28]): 202 nM | GI50 (KYSE150; [29]): 276 nM | GI50 (KYSE150; [30]): 150 nM | GI50 (KYSE150; [31]): 209 nM | GI50 (Detroit 562; [32]): 580 nM | GI50 (Detroit 562; [33]): 527 nM | GI50 (Detroit 562; [34]): 607 nM | GI50 (Detroit 562; [35]): 571 nM | GI50 (KYSE450; [36]): 1230 nM | GI50 (KYSE450; [37]): 1000 nM | GI50 (KYSE450; [38]): 932 nM | GI50 (KYSE450; [39]): 1050 nM
Structure (SMILES): CS(=O)(=O)N1CCN(Cc2cc3c(N4CCOCC4)nc(-c4cnc(N)cc4C(F)(F)F)nn3c2)CC1 [Compound I-27, 5-(6-((4-(methylsulfonyl)piperazin-1-yl)methyl)-4-morpholinopyrrolo [2,1-f][1,2,4]triazin-2-yl)-4-(trifluoromethyl)pyridin-2-amine]

IC50 [1]: 470 nM | IC50 (PI3Kα): 5.67 nM
Structure (SMILES): COC(=O)Nc1cc(C(F)(F)F)c(-c2nc(N3CCOC[C@@H]3C)c3cc(CN4CCN(S(C)(=O)=O)CC4)cn3n2)cn1 [Compound I-35, (S)-methyl (5-(4-(3-methylmorpholino)-6-((4-(methylsulfonyl)piperazin-1-yl)methyl)pyrrolo[2,1-f][1,2,4]triazin-2-yl)-4-(trifluoromethyl)pyridin-2-yl)carbamate]

GI50 (KYSE30; [3]): 10000 nM | GI50 (KYSE30; [4]): 6830 nM | GI50 (KYSE30; [5]): 10000 nM | GI50 (KYSE30; [6]): 8940 nM | GI50 (KYSE410; [7]): 1890 nM | GI50 (KYSE410; [8]): 816 nM | GI50 (KYSE410; [9]): 874 nM | GI50 (KYSE410; [10]): 1190 nM | GI50 (KYSE140; [11]): 2450 nM | GI50 (KYSE140; [12]): 3610 nM | GI50 (KYSE140; [13]): 2740 nM | GI50 (KYSE140; [14]): 2930 nM | GI50 (COLO680N; 1st experiment): 6120 nM | GI50 (COLO680N; 2nd experiment): 6050 nM | GI50 (COLO680N; 3rd experiment): 6100 nM | GI50 (COLO680N; mean of three experiments): 6090 nM | GI50 (KYSE510; [15]): 1530 nM | GI50 (KYSE510; [16]): 835 nM | GI50 (KYSE510; [17]): 1030 nM | GI50 (KYSE510; [18]): 1130 nM | GI50 (KYSE70; [19]): 452 nM | GI50 (KYSE70; [20]): 450 nM | GI50 (KYSE70; [21]): 478 nM | GI50 (KYSE70; [22]): 460 nM | GI50 (KYSE2; KYSE2, 1st experiment): 1440 nM | GI50 (KYSE2; KYSE2, 2nd experiment): 911 nM | GI50 (KYSE2; KYSE2, 3rd experiment): 1870 nM | GI50 (KYSE2; [23]): 1410 nM | GI50 (KYSE180; [24]): 354 nM | GI50 (KYSE180; [25]): 740 nM | GI50 (KYSE180; [26]): 553 nM | GI50 (KYSE180; [27]): 549 nM | GI50 (KYSE150; [28]): 1640 nM | GI50 (KYSE150; [29]): 2110 nM | GI50 (KYSE150; [30]): 1670 nM | GI50 (KYSE150; [31]): 1810 nM | GI50 (Detroit 562; [32]): 1970 nM | GI50 (Detroit 562; [33]): 2300 nM | GI50 (Detroit 562; [34]): 2380 nM | GI50 (Detroit 562; [35]): 2220 nM | GI50 (KYSE450; [36]): 8590 nM | GI50 (KYSE450; [37]): 10000 nM | GI50 (KYSE450; [38]): 8800 nM | GI50 (KYSE450; [39]): 9130 nM
Structure (SMILES): Cc1nc(NC(=O)N2CCC[C@H]2C(N)=O)sc1-c1ccnc(C(C)(C)C(F)(F)F)c1 [BYL719, reference compound]
growth of KYSE 410 xenograft (in words) ([2]; 50 mg/kg p.o. every day for 3 weeks): significantly slowed down | Relative tumor proliferation rate T/C ([2]; d0): 100.00% | Relative tumor proliferation rate T/C ([2]; d3): 56.95% | Relative tumor proliferation rate T/C ([2]; d7): 31.23% | Relative tumor proliferation rate T/C ([2]; d10): 24.77% | Relative tumor proliferation rate T/C ([2]; d14): 22.12% | Relative tumor proliferation rate T/C ([2]; d17): 19.32% | Relative tumor proliferation rate T/C ([2]; d21): 15.37%

— patent publication US9724352B2, “Pyrrolo[2,1-F[1,2,4]triazine compounds, preparation methods and applications thereof” (Shanghai Institute of Materia Medica, Chinese Academy of …, priority 2012, dated 2017)
